The values below are quoted from earlier work in patent US20250375478A1, “THERAPEUTIC COMPOSITION, ASSEMBLY KIT AND METHOD FOR THE TREATMENT OF DRY EYE DISEASE AND PROMOTION OF OCULAR HEALTH” (PReye, LLC, priority 2025, published 2025).

For the series the following is noted: ferulic acid combined in solution with Vitamin C.

On to `COc1cc(/C=C/C(=O)O)ccc1O` [Ferulic acid], for which the “stabilization of Vitamin C” value is recorded as “up to 90%”.
